# Measurements from patent publication US12043599B2, “Herbicidal compounds” (SYNGENTA PARTICIPATIONS AG, priority 2018, dated 2024).
# Key:
# Assay type in all cases: in vivo
# Conditions in all cases: 250 g/h, evaluated after 13 days
# Lolium perenne (LOLPE) [1] = assay: Post-emergence herbicidal glasshouse test, percentage damage
# Outline: (§1)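 A single spray at 250 g/h was given either to soil one day after sowing or to seedlings after eight days' growth. Vehicle was acetone/water (50:50) with 0.5% Tween 20. Thirteen days on, damage was rated in 20% bands, 1 (0-19%) to 5 (80-100%).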
# Avena fatua (AVEFA) [2] = assay: as above
# Outline: as §1
# [3] = test system: Echinochloa crus-galli (ECHCG); assay: as above
# Outline: as §1
# [4] = test system: Alopecurus myosuroides (ALOMY); assay: as above
# Outline: as §1
# Lolium perenne (LOLPE) [5] = assay: Pre-emergence herbicidal glasshouse test, percentage damage
# Outline: as §1
# Avena fatua (AVEFA) [6] = assay: as above
# Outline: as §1
# Setaria faberi (SETFA) [7] = assay: as above
# Outline: as §1
# [8] = test system: Echinochloa crus-galli (ECHCG); assay: as above
# Outline: as §1
# [9] = test system: Alopecurus myosuroides (ALOMY); assay: as above
# Outline: as §1
# Setaria faberi (SETFA) [10] = assay: Post-emergence herbicidal glasshouse test, percentage damage
# Outline: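 Wheat, barley and Setaria faberi were sprayed post-emergence after 8 days' growth (24/16 °C, 14 h light, 65% humidity) with compound in acetone/water (50:50) containing 0.5% Tween 20, at the indicated rates. On wheat, compounds were also applied with cloquintocet-mexyl at 50 g/ha. Damage was scored after 13 days on a five-point scale (5=80-100% to 1=0-19%).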
Structure (SMILES),LOLPE POST percentage damage (five point scale) (Lolium perenne (LOLPE) [1]),AVEFA POST percentage damage (five point scale) (Avena fatua (AVEFA) [2]),ECHCG POST percentage damage (five point scale) [3],ALOMY POST percentage damage (five point scale) [4],LOLPE PRE percentage damage (five point scale) (Lolium perenne (LOLPE) [5]),AVEFA PRE percentage damage (five point scale) (Avena fatua (AVEFA) [6]),SETFA PRE percentage damage (five point scale) (Setaria faberi (SETFA) [7]),ECHCG PRE percentage damage (five point scale) [8],ALOMY PRE percentage damage (five point scale) [9],SETFA POST percentage damage (five point scale) (Setaria faberi (SETFA) [10])
CC#Cc1cc(C)c(C2C(=O)CC3(CCN(C(=O)NC(=O)C(C)(C)C)CC3)CC2=O)c(OC)c1 [Compound A77],5 (5=80-100%),5 (5=80-100%),5 (5=80-100%),5 (5=80-100%),5 (5=80-100%),5 (5=80-100%),5 (5=80-100%),5 (5=80-100%),5 (5=80-100%),5 (5=80-100%)
CC#Cc1cc(C)c(C2C(=O)CC3(CCN(C(=O)NC(=O)c4ccc(C#N)cn4)CC3)CC2=O)c(C)c1 [Compound A160],5 (5=80-100%),5 (5=80-100%),4 (4=60-79%),4 (4=60-79%),3 (3=40-59%),4 (4=60-79%),5 (5=80-100%),4 (4=60-79%),2 (2=20-39%),5 (5=80-100%)
CC#Cc1cc(C)c(C2C(=O)CC3(CCN(C(=O)N4CCOCC4)CC3)CC2=O)c(C)c1 [Compound A13],5 (5=80-100%),5 (5=80-100%),5 (5=80-100%),5 (5=80-100%),5 (5=80-100%),5 (5=80-100%),5 (5=80-100%),5 (5=80-100%),5 (5=80-100%),5 (5=80-100%)
CC#Cc1cc(C)c(C2C(=O)CC3(CCN(C(=O)c4cccc(C(F)(F)F)n4)CC3)CC2=O)c(C)c1 [Compound A91],5 (5=80-100%),5 (5=80-100%),5 (5=80-100%),5 (5=80-100%),5 (5=80-100%),5 (5=80-100%),5 (5=80-100%),5 (5=80-100%),5 (5=80-100%),5 (5=80-100%)
C=CCOCC(=O)N1CCC2(CC1)CC(=O)C(c1c(C)cc(C#CC)cc1C)C(=O)C2 [Compound A201],5 (5=80-100%),5 (5=80-100%),5 (5=80-100%),5 (5=80-100%),5 (5=80-100%),4 (4=60-79%),5 (5=80-100%),5 (5=80-100%),5 (5=80-100%),5 (5=80-100%)
CC#Cc1cc(C)c(C2C(=O)CC3(CCN(C(=O)C4=COCCO4)CC3)CC2=O)c(C)c1 [Compound A170],5 (5=80-100%),5 (5=80-100%),5 (5=80-100%),5 (5=80-100%),4 (4=60-79%),2 (2=20-39%),4 (4=60-79%),3 (3=40-59%),4 (4=60-79%),5 (5=80-100%)
CC#Cc1cc(C)c(C2C(=O)CC3(CCN(C(=O)Nc4ccccn4)CC3)CC2=O)c(C)c1 [Compound A41],5 (5=80-100%),5 (5=80-100%),5 (5=80-100%),4 (4=60-79%),5 (5=80-100%),4 (4=60-79%),5 (5=80-100%),5 (5=80-100%),4 (4=60-79%),5 (5=80-100%)
CC#Cc1cc(C)c(C2C(=O)CC3(CCN(C(=O)NC(=O)c4ccccc4)CC3)CC2=O)c(C)c1 [Compound A166],5 (5=80-100%),5 (5=80-100%),5 (5=80-100%),5 (5=80-100%),5 (5=80-100%),4 (4=60-79%),5 (5=80-100%),4 (4=60-79%),5 (5=80-100%),5 (5=80-100%)
"CC#Cc1cc(C)c(C2C(=O)CC3(CCN(C(=O)CCC#N)CC3)CC2=O)c(C)c1 [Compound A198, 4-[9-(2,6-dimethyl-4-prop-1-ynyl-phenyl)-8,10-dioxo-3-azaspiro[5.5]undecan-3-yl]-4-oxo-butanenitrile]",5 (5=80-100%),5 (5=80-100%),5 (5=80-100%),5 (5=80-100%),5 (5=80-100%),4 (4=60-79%),5 (5=80-100%),5 (5=80-100%),5 (5=80-100%),5 (5=80-100%)
"CC#Cc1cc(C)c(C2=C(OC(=O)OC)CC3(CCN(S(=O)(=O)CC)CC3)CC2=O)c(C)c1 [Compound P7, [9-(2,6-dimethyl-4-prop-1-ynyl-phenyl)-3-ethylsufonyl-10-oxo-3-azaspiro[5.5]undec-8-en-8-yl] methyl carbonate]",5 (5=80-100%),5 (5=80-100%),5 (5=80-100%),5 (5=80-100%),5 (5=80-100%),5 (5=80-100%),5 (5=80-100%),5 (5=80-100%),5 (5=80-100%),5 (5=80-100%)
CC#Cc1cc(C)c(C2C(=O)CC3(CCN(C(=O)NC(C)C)CC3)CC2=O)c(C)c1 [Compound A152],5 (5=80-100%),5 (5=80-100%),5 (5=80-100%),5 (5=80-100%),5 (5=80-100%),5 (5=80-100%),5 (5=80-100%),5 (5=80-100%),5 (5=80-100%),5 (5=80-100%)
CC#Cc1cc(C)c(C2C(=O)CC3(CCN(C(=O)Cc4ncccn4)CC3)CC2=O)c(C)c1 [Compound A102],5 (5=80-100%),5 (5=80-100%),5 (5=80-100%),5 (5=80-100%),5 (5=80-100%),5 (5=80-100%),5 (5=80-100%),5 (5=80-100%),2 (2=20-39%),5 (5=80-100%)
"CC#Cc1cc(C)c(C2C(=O)CC3(CCN(C(=O)COC(F)F)CC3)CC2=O)c(C)c1 [Compound A197, 3-[2-(difluoromethoxy)acetyl]-9-(2,6-dimethyl-4-prop-1-ynyl-phenyl)-3-azaspiro[5.5]undecane-8,10-dione]",5 (5=80-100%),5 (5=80-100%),5 (5=80-100%),5 (5=80-100%),5 (5=80-100%),5 (5=80-100%),5 (5=80-100%),5 (5=80-100%),5 (5=80-100%),5 (5=80-100%)
